# Laboratory results: patent US20230131899A1, “INHIBITORS OF MICROBIALLY INDUCED AMYLOID” (Axial Therapeutics, Inc., priority 2020, published 2023)
# Like-named read-outs stand apart in the source and are kept apart here.
# Tested on: CsgA gene expression (csgBAC promoter-GFP reporter) in E. coli UTI89
# Experiment: In vitro live cell fluorescent reporter assay of CsgA transcription (Reporter Assay)
# Format: cell-based
# Conditions: Escherichia coli
# Method: In vitro live cell fluorescent reporter assay to determine effects of compounds on CsgA transcription. To assess the impact of compounds on CsgA gene expression, a live cell assay was performed using an engineered strain of E. coli UTI89 with a fluorescent CsgA gene expression reporter driven by the csgBAC promoter. In the reporter strain, a gene encoding Green Fluorescent Protein (GFP) was placed immediately downstream of the full intergenic region between csgDEF and csgBAC, containing the csgBAC promoter and other transcriptional regulatory elements, and inserted in single copy into the E. coli UTI89 chromosome, as described in Cegelski et. al., “Small-molecule inhibitors target Escherichia coli amyloid biogenesis and biofilm formation,” Nat. Chem. Bio., 25 Oct. 2009. With this construct, GFP expression in the reporter strain was under the same regulation as CsgA expression. The reporter strain was struck out on a YESCA agar plate (1 g/L yeast extract, 10 g/L casamino acids, 20 g/L Bacto Agar) and grown at about 27° C. for 2 days, or until single colonies were sufficiently large to pick. A single colony of the reporter strain was used to inoculate 5 mL of YESCA broth (1 g/L yeast extract, 10 g/L casamino acids), which was grown overnight at about 27° C. The inoculum was diluted 1:10 in YESCA broth and the optical density at 600 nm (OD600) was measured on a SpectraMax M2 or M5e (Molecular Devices, San Jose, Calif.) spectrophotometer in cuvettes. The culture was then further diluted to achieve a final OD600 of 0.003, which was confirmed by measurement of the OD600. Compounds were diluted in dimethyl sulfoxide (DMSO) and plated on black clear-bottomed tissue culture-treated 96-well plates with 1.5 μL/well for final test concentrations from 0.14-100 μM. All assay wells, including vehicle controls and positive controls for inhibition, included 1% DMSO final. Vehicle control wells consisted of DMSO and the reporter strain to assess the expression of the reporter strain in the assay in the absence of any compound. […] 148.5 μL culture at OD600 0.003 in YESCA broth was added to all wells for 150 μL final volume. Plates were incubated at 27° C. for 20 hours, then GFP fluorescence signal for each well was read on a Spectramax M2 or M5e plate reader with excitation at 485 nm, emission at 525 nm, and a cutoff at 515 nm. OD600 for each well was also measured on the Spectramax M2 or M5e plate reader. […] Background fluorescence was subtracted from all wells, then fluorescence signal for each well was normalized to the mean of the vehicle control wells. Normalized dose response curves were plotted for each compound, and compound inhibition of CsgA transcription was determined by assessing the curve-fit IC50, bottom, top, span (top-bottom), and Hill slope using GraphPad Prism software version 8.1.1 (GraphPad Software, San Diego, Calif.). An additional metric used to evaluate compounds was the concentration at which the curve reached 50% of the expression level of the vehicle control. This was written as a custom analysis in GraphPad Prism according to the formula X[50], or the X value at which Y=50, ie, the compound concentration at which fluorescence of the reporter strain was calculated to reach 50% of the vehicle control fluorescence. Separately from the fluorescence data, OD600 values were normalized to the mean of the vehicle control wells, and dose response curves were plotted for each compound. OD600 reduction of greater than 10% indicated compounds had some toxicity or negative impact on bacterial growth. […]
# [1] = read-out: Reporter Assay Abs IC50 (μM), median Abs IC50 in the CsgA reporter assay, N/A = maximum expression reduction is <50% of control
# [2] = read-out: Reporter Assay Abs IC50, activity range, class symbol
# [3] = read-out: Reporter Assay Abs IC50 (activity range), median Abs IC50 in the CsgA reporter assay, class symbol
Compound,IC50 [1] [µM],IC50 [2] [µM],IC50 [3] [µM]
"O=C(O)C1CN(Cc2ccccc2)c2c(-c3cccc(C(F)(F)F)c3)c(CCc3ccccc3)cc(=O)n21 (stereo not shown) [Compound 236, 1-benzyl-5-oxo-7-phenethyl-8-(3-(trifluoromethyl)phenyl)-1,2,3,5-tetrahydroimidazo[1,2-a]pyridine-3-carboxylic acid]",1.7,1.3 to 4.5,
"CN1CC(C(=O)O)n2c(c(-c3cccc(C(F)(F)F)c3)c(Cc3cccc4ccccc34)cc2=O)S1(=O)=O (racemic) [Compound 008, 2-methyl-8-(naphthalen-1-ylmethyl)-6-oxo-9-(3-(trifluoromethyl)phenyl)-3,4-dihydro-2H,6H-pyrido[1,2-e][1,2,5]thiadiazine-4-carboxylic acid 1,1-dioxide]",4.3,,1.3 to 4.5
"CC(C)(C)c1cccc(Cc2cc(=O)n3c(c2-c2cccc(C(F)(F)F)c2)N(Cc2ccccc2)CC3C(=O)O)c1 (stereo not shown) [Compound 226, 1-benzyl-7-(3-(tert-butyl)benzyl)-5-oxo-8-(3-(trifluoromethyl)phenyl)-1,2,3,5-tetrahydroimidazo[1,2-a] pyridine-3-carboxylic acid]",2.7,,
"COc1ccc(Cc2cc(=O)n3c(c2-c2cccc(C(F)(F)F)c2)N(Cc2ccccc2)CC3C(=O)O)c2ccccc12 (stereo not shown) [Compound 220, 1-benzyl-7-((4-methoxynaphthalen-1-yl)methyl)-5-oxo-8-(3-(trifluoromethyl)phenyl)-1,2,3,5-tetrahydroimidazo[1,2-a]pyridine-3-carboxylic acid]",1.2,< 1.3,
"O=C(O)C1CN(Cc2ccccc2)c2c(-c3cccc(C(F)(F)F)c3)c(CN3CCCc4ccccc43)cc(=O)n21 (stereo not shown) [Compound 228, 1-benzyl-7-((3,4-dihydroquinolin-1 (2H)-yl)methyl)-5-oxo-8-(3-(trifluoromethyl)phenyl)-1,2,3,5-tetrahydroimidazo[1,2-a]pyridine-3-carboxylic acid]",3.9,1.3 to 4.5,
"CCCCN1CC(C(=O)O)n2c(c(-c3cccc(C(F)(F)F)c3)c(Cc3cccc4ccccc34)cc2=O)S1(=O)=O (racemic) [Compound 021, 2-butyl-8-(naphthalen-1-ylmethyl)-6-oxo-9-(3-(trifluoromethyl)phenyl)-3,4-dihydro-2H,6H-pyrido[1,2-e][1,2,5]thiadiazine-4-carboxylic acid 1,1-dioxide]",2.6,,1.3 to 4.5
"O=C(O)c1c[nH]c2c(-c3cccc(C(F)(F)F)c3)c(Cc3cccc4ccccc34)cc(=O)n12 [Compound 110, 7-(naphthalen-1-ylmethyl)-5-oxo-8-(3-(trifluoromethyl)phenyl)-1,5-dihydroimidazo[1,2-a]pyridine-3-carboxylic acid]",13.7,,> 10
"O=C(O)C1CN(Cc2ccccc2)c2c(-c3cccc(C(F)(F)F)c3)c(Cc3cccc4cccnc34)cc(=O)n21 (stereo not shown) [Compound 224, 1-benzyl-5-oxo-7-(quinolin-8-ylmethyl)-8-(3-(trifluoromethyl)phenyl)-1,2,3,5-tetrahydroimidazo[1,2-a]pyridine-3-carboxylic acid]",9.7,4.6 to 10,
"CC(C)(C)c1ccc(Cc2cc(=O)n3c(c2-c2cccc(C(F)(F)F)c2)N(Cc2ccccc2)CC3C(=O)O)cc1 (stereo not shown) [Compound 227, 1-benzyl-7-(4-(tert-butyl)benzyl)-5-oxo-8-(3-(trifluoromethyl)phenyl)-1,2,3,5-tetrahydroimidazo[1,2-a] pyridine-3-carboxylic acid]",1.8,1.3 to 4.5,
"O=C(O)C1CN(Cc2ccccc2)c2c(-c3cccc(C(F)(F)F)c3)c(Cc3cncc4ccccc34)cc(=O)n21 (stereo not shown) [Compound 221, 1-benzyl-7-(isoquinolin-4-ylmethyl)-5-oxo-8-(3-(trifluoromethyl)phenyl)-1,2,3,5-tetrahydroimidazo[1,2-a]pyridine-3-carboxylic acid]",6.7,4.6 to 10,
"O=C(O)C1CN(Cc2ccccc2)c2c(-c3cccc(C(F)(F)F)c3)c(Cc3ccccc3)cc(=O)n21 (stereo not shown) [Compound 235, 1,7-dibenzyl-5-oxo-8-(3-(trifluoromethyl)phenyl)-1,2,3,5-tetrahydroimidazo[1,2-a]pyridine-3-carboxylic acid]",2.7,1.3 to 4.5,
"O=C(O)C1CN(Cc2ccccc2)c2c(-c3cccc(C(F)(F)F)c3)c(Cc3cccc4ncccc34)cc(=O)n21 (stereo not shown) [Compound 222, 1-benzyl-5-oxo-7-(quinolin-5-ylmethyl)-8-(3-(trifluoromethyl)phenyl)-1,2,3,5-tetrahydroimidazo[1,2-a]pyridine-3-carboxylic acid]",31.8,> 10,
"O=C(O)C1CN(Cc2ccccc2)c2c(-c3cccc(C(F)(F)F)c3)c(CN3CCC[C@@H](c4ccccc4)C3)cc(=O)n21 (stereo partly drawn) [Compound 231, 1-benzyl-5-oxo-7-(((S)-3-phenylpiperidin-1-yl)methyl)-8-(3-(trifluoromethyl)phenyl)-1,2,3,5-tetrahydroimidazo[1,2-a]pyridine-3-carboxylic acid]",3.4,1.3 to 4.5,
"O=C(O)C1CN(Cc2ccccc2)c2c(-c3cccc(C(F)(F)F)c3)c(CN3CCC[C@@H](c4ccccc4)C3)c(Cl)c(=O)n21 (stereo partly drawn) [Compound 230, 1-benzyl-6-chloro-5-oxo-7-(((S)-3-phenylpiperidin-1-yl)methyl)-8-(3-(trifluoromethyl)phenyl)-1,2,3,5-tetrahydroimidazo[1,2-a]pyridine-3-carboxylic acid]",1.2,< 1.3,
"O=C(O)C1CN(Cc2ccccc2)c2c(-c3cccc(C(F)(F)F)c3)c(CN3CCC[C@H](c4ccccc4)C3)c(Cl)c(=O)n21 (stereo partly drawn) [Compound 237, 1-benzyl-6-chloro-5-oxo-7-(((R)-3-phenylpiperidin-1-yl)methyl)-8-(3-(trifluoromethyl)phenyl)-1,2,3,5-tetrahydroimidazo[1,2-a]pyridine-3-carboxylic acid]",1.3,1.3 to 4.5,
"O=C(O)C1CN(Cc2ccccc2)c2c(-c3cccc(C(F)(F)F)c3)c(Cc3ccc(Cl)c4ccccc34)c(Cl)c(=O)n21 (stereo not shown) [Compound 225, 1-benzyl-6-chloro-7-((4-chloronaphthalen-1-yl)methyl)-5-oxo-8-(3-(trifluoromethyl)phenyl)-1,2,3,5-tetrahydroimidazo[1,2-a]pyridine-3-carboxylic acid]",1.6,1.3 to 4.5,
"COc1ccc(Cc2c(-c3cccc(C(F)(F)F)c3)c3n(c(=O)c2Cl)C(C(=O)O)CN3Cc2ccccc2)c2ccccc12 (stereo not shown) [Compound 219, 1-benzyl-6-chloro-7-((4-methoxynaphthalen-1-yl)methyl)-5-oxo-8-(3-(trifluoromethyl)phenyl)-1,2,3,5-tetrahydroimidazo[1,2-a]pyridine-3-carboxylic acid]",0.8,< 1.3,
"O=C(O)C1CN(Cc2ccccc2)c2c(-c3cccc(C(F)(F)F)c3)c(CCc3ccccc3)c(Cl)c(=O)n21 (stereo not shown) [Compound 240, 1-benzyl-6-chloro-5-oxo-7-phenethyl-8-(3-(trifluoromethyl)phenyl)-1,2,3,5-tetrahydroimidazo[1,2-a]pyridine-3-carboxylic acid]",1.4,1.3 to 4.5,
"O=C(O)C1CN(Cc2ccccc2)c2c(-c3cccc(C(F)(F)F)c3)c(Cc3cccc4cnccc34)cc(=O)n21 (stereo not shown) [Compound 223, 1-benzyl-7-(isoquinolin-5-ylmethyl)-5-oxo-8-(3-(trifluoromethyl)phenyl)-1,2,3,5-tetrahydroimidazo[1,2-a] pyridine-3-carboxylate]",21.7,> 10,
